The values below come from patent publication US20260042764A1, “COMPOSITIONS AND METHODS FOR INHIBITION OF KRAS” (TheRas, Inc., priority 2022, published 2026).

The test system of assay [1] is SW1900 cells (KRAS G12D). The assay is described as follows: 3D Cell viability assay in SW1900 cells (Biological Example 6). In kind it is cell-based. Conditions: Homo sapiens; SW1990 (text: SW1900, KRAS G12D) spheroids, 72 hours. Summed up: (§1)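 Luminescent ATP read-out (CellTiter-Glo 3D) after 72 h compound exposure gives viability of preformed spheroids. Cells were seeded at 1000 per well in low-attachment plates and left 48 h to aggregate before dosing with nine three-fold concentrations at 0.25% DMSO.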

Assay [2] concerns MKN1 cells (KRAS amplification). The assay is described as follows: Cell-based pERK HTRF assay in MKN1 cells (Biological Example 5). Conditions: Homo sapiens, MKN-1, MKN cells (MKN1, KRAS amplification). Here is the method:
(§2) Biological Example 5: Cell-based PERK HTRF assay in AsPC-1, SW1900, HPAC, Capan-2, RKN, H358, HCT116, KP-2, H1573, A549, MKN1, and HT1080 cells
(§3) The inhibition of ERK phosphorylation, as measured using the HTRF Advanced Phospho-ERK 1/2 (Thr202/Tyr204) Detection Assay kit (Perkin Elmer), was used to determine the effectiveness of test compounds in disrupting KRAS-driven protein/effector signaling in cells.
(§4) On day 1, cells were seeded into 96-well plates at 2.5×10^4 cells/well in 100 μL of complete growth media supplemented with 10% fetal bovine serum (FBS) and incubated at 37° C., in the presence of 5% CO2.
(§5) On day 2, cells were treated with compounds diluted in DMSO at 0.25% final DMSO concentration. Compounds were dosed in a 9-point concentration curve with three-fold dilution between concentrations. Cells were incubated in the presence of compound for two hours at 37° C. Following this treatment period, cells were harvested by aspirating the media, adding 40 μL of kit-supplied 1x lysis buffer per well, and shaking for 30 minutes at 250 rpm at room temperature.
(§6) Following cell lysis, samples were homogenized by pipetting up and down twenty times and 16 μL of cell lysate per well was transferred from the 96-well cell culture plate to two wells of a 384-well detection plate. A complete detection buffer was prepared by diluting D2 and Eu Cryptate antibodies 1:20 in kit-provided detection solution, 4 μL of complete detection buffer was then added to each well with lysate. Plates were incubated with gentle rocking for 24 hours at 4° C.
(§7) Following this incubation period, plates were centrifuged at 500×g for one minute and analyzed on a CLARIOstar plate reader. Data was imported into Microsoft Excel and the signal from the 665 nm channel was divided by the signal from the 620 nm channel. % pERK was calculated as: […]
(§8) Data was imported to the Prism software package (Graphpad) and EC50 values were calculated using the log (inhibitor) vs, response—variable slopc (Four parameters) model.
(In general: In TR-FRET formats the signal depends on donor and acceptor labels being close together.)

Assay [3] relates to H1573 cells (KRAS G12A). The assay is described as follows: Cell-based pERK HTRF assay in H1573 cells (Biological Example 5). Conditions: Homo sapiens, NCI-H1573. Here is the method:
as §2, §3, §4, §5, §6, §7, §8

The subject of assay [4] is HT1080 cells (NRAS). The assay is described as follows: Cell-based pERK HTRF assay in HT1080 cells (Biological Example 5). Conditions: Homo sapiens, HT-1080. Here is the method:
as §2, §3, §4, §5, §6, §7, §8

Assay [5] deals with SW1900 cells (KRAS G12D). The assay is described as follows: Cell-based pERK HTRF assay in SW1900 cells (Biological Example 5). Conditions: Homo sapiens, SW1990, SW1990 cells (text: SW1900, KRAS G12D). The method, then:
as §2, §3, §4, §5, §6, §7, §8

The test system of another assay is HPAC cells (KRAS G12D). Kind of assay: 3D Cell viability assay in HPAC cells (Biological Example 6). In kind it is cell-based. To be noted: Homo sapiens, HPAC, 72 h, HPAC (KRAS G12D) spheroids. The method in brief: as §1
Assay [6] deals with Capan-2 cells (KRAS G12V). The assay is described as follows: 3D Cell viability assay in Capan-2 cells (Biological Example 6). In kind it is cell-based. To be noted: Homo sapiens; Capan-2 (KRAS G12V) spheroids, 72 hours. The method, then: (§9) Biological Example 6: 3D Cell viability assay in AsPC-1, SW1900, HPAC, Capan-2, RKN, H358, HCT116, KP-2, H1573, A549, MKN1, and HT1080 cells
(§10) The inhibition of cellular viability as a result of test compound treatment in a spheroid assay was measured using the CellTiter-Glow 3D Cell Viability Assay (Promega).
(§11) On Day 1, 1000 cells per well were seeded in 150 μL of complete growth media supplemented with 10% fetal bovine serum (FBS) and incubated at 37° C., in the presence of 5% CO2 in 96-well ultra-low attachment microplates (Corning) for 48 hours undisturbed to allow spheroids to form.
(§12) Following spheroid formation, cells were treated with compounds diluted in DMSO at 0.25% final DMSO concentration. Compounds were dosed in a 9-point concentration curve with three-fold dilution between concentrations. Cells were incubated in the presence of compound for 72 hours at 37° C., in the presence of 5% CO2.
(§13) Following this incubation period, the kit-provided CTG reagent was allowed to equilibrate for 30 minutes at room temperature, 150 μL of equilibrated CTG reagent was added to each well, and the plate was sealed before shaking at 250 rpm for 10 minutes at room temperature to lyse the cells, 150 μL of lysate per well was transferred to a 96-well plate and luminescence was read on a CLARIOstar plate reader.
(§14) Data was imported into the Prism software package (Graphpad) and EC50 values were calculated using the log (inhibitor) vs, response—variable slope (Four parameters) model.

Assay [7] has as its system H1573 cells (KRAS G12A). The assay is described as follows: 3D Cell viability assay in H1573 cells (Biological Example 6). It is filed as cell-based. To be noted: Homo sapiens, NCI-H1573; H1573 (KRAS G12A) spheroids, 72 hours. The method, then:
as §9, §10, §11, §12, §13, §14

Assay [8] deals with A549 cells (KRAS G12S). The assay is described as follows: 3D Cell viability assay in A549 cells (Biological Example 6). It is filed as cell-based. Conditions: Homo sapiens; A549 (KRAS G12S) spheroids, 72 hours. Here is the method: as §9, §10, §11, §12, §13, §14
In assay [9] the test system is Capan-2 cells (KRAS G12V). Kind of assay: Cell-based pERK HTRF assay in Capan-2 cells (Biological Example 5). To be noted: Homo sapiens, Capan-2, Capan-2 (KRAS G12V) cells. The method, then: as §2, §3, §4, §5, §6, §7, §8
In assay [10] the test system is RKN cells (KRAS G12V). Kind of assay: Cell-based pERK HTRF assay in RKN cells (Biological Example 5). Here is the method:
as §2, §3, §4, §5, §6, §7, §8

The test system of assay [11] is A549 cells (KRAS G12S). The assay is described as follows: Cell-based pERK HTRF assay in A549 cells (Biological Example 5). To be noted: Homo sapiens. The method, then: as §2, §3, §4, §5, §6, §7, §8
The subject of assay [12] is RKN cells (KRAS G12V). The assay is described as follows: 3D Cell viability assay in RKN cells (Biological Example 6). In kind it is cell-based. To be noted: RKN (KRAS G12V) spheroids, 72 hours. The method, then:
as §9, §10, §11, §12, §13, §14

The subject of assay [13] is HCT116 cells (KRAS G13D). Kind of assay: 3D Cell viability assay in HCT116 cells (Biological Example 6). It is filed as cell-based. To be noted: Homo sapiens, HCT-116; HCT116 (KRAS G13D) spheroids, 72 hours. The method in brief: as §1
Assay [14] concerns HCT116 cells (KRAS G13D). Kind of assay: Cell-based pERK HTRF assay in HCT116 cells (Biological Example 5). Conditions: Homo sapiens, HCT-116. The method, then: as §2, §3, §4, §5, §6, §7, §8
Assay [15] relates to HT1080 cells (NRAS). The assay is described as follows: 3D Cell viability assay in HT1080 cells (Biological Example 6). It is filed as cell-based. Conditions: Homo sapiens, HT-1080; HT1080 (NRAS) spheroids, 72 hours. Summed up:
as §1

Take `CCC(=O)N1CC[C@@H](N(C)c2nc(OC[C@@]34CCCN3C[C@H](F)C4)nc3c(F)c(-c4ccc(F)c5sc(N)c(C#N)c45)c(C(F)(F)F)cc23)[C@H]1C` [Compound 260]: the IC50 – broadly, the concentration needed to halve the response being measured – was 100 to 1000 nM in the assay on SW1900 cells (KRAS G12D) [1]; at most 100 nM in assay [2]; at most 100 nM in the assay on H1573 cells (KRAS G12A) [3]; over 1000 nM in the assay with HT1080 cells (NRAS) [4]; at most 100 nM in the assay with SW1900 cells (KRAS G12D) [5]; 100 to 1000 nM in the assay with HPAC cells (KRAS G12D). Further, the IC50 (in assay [6]; in the assay with H1573 cells (KRAS G12A) [7]; in the assay on A549 cells (KRAS G12S) [8]; in [9]; with RKN cells (KRAS G12V) [10]; with A549 cells (KRAS G12S) [11]) was at most 100 nM throughout. Moreover, the IC50 with RKN cells (KRAS G12V) [12] is at most 100 nM; in the assay with HCT116 cells (KRAS G13D) [13] it was 100 to 1000 nM; with HCT116 cells (KRAS G13D) [14], at most 100 nM; in the assay on HT1080 cells (NRAS) [15] it was over 1000 nM.
For the compound `CCN(c1nc(OC[C@@]23CCCN2C[C@H](F)C3)nc2c(F)c(-c3ccc(F)c4sc(N)c(C#N)c34)c(Cl)cc12)[C@@H]1CCN(C(C)=O)[C@@H]1C` [Compound 323], the IC50 is at most 100 nM in the assay with SW1900 cells (KRAS G12D) [1]; at most 100 nM in [2]; at most 100 nM in the assay on H1573 cells (KRAS G12A) [3]; over 1000 nM with HT1080 cells (NRAS) [4]; at most 100 nM with SW1900 cells (KRAS G12D) [5]; at most 100 nM in the assay with HPAC cells (KRAS G12D). Besides, the IC50 in [6] is at most 100 nM; with H1573 cells (KRAS G12A) [7] it was at most 100 nM; with A549 cells (KRAS G12S) [8], at most 100 nM; in [9], at most 100 nM; in the assay with A549 cells (KRAS G12S) [11], at most 100 nM; with HCT116 cells (KRAS G13D) [13], 100 to 1000 nM. For the same compound, the IC50 is at most 100 nM with HCT116 cells (KRAS G13D) [14] and over 1000 nM with HT1080 cells (NRAS) [15].
`CCN(c1nc(OC[C@@]23CCCN2C[C@H](F)C3)nc2c(F)c(-c3ccc(F)c4sc(N)c(C#N)c34)c(Cl)cc12)[C@@H]1CCN(C(=O)C2CC2)[C@@H]1C` [Compound 337]: the IC50 with SW1900 cells (KRAS G12D) [1] is at most 100 nM; in [2], at most 100 nM; in the assay with H1573 cells (KRAS G12A) [3], at most 100 nM; in the assay with HT1080 cells (NRAS) [4], over 1000 nM; with SW1900 cells (KRAS G12D) [5], at most 100 nM; with HPAC cells (KRAS G12D), 100 to 1000 nM. Also, the IC50 in [6] is 100 to 1000 nM; in the assay on H1573 cells (KRAS G12A) [7] it was at most 100 nM; with A549 cells (KRAS G12S) [8] it was at most 100 nM; in assay [9] it was at most 100 nM; in the assay with A549 cells (KRAS G12S) [11], 100 to 1000 nM; in the assay with HCT116 cells (KRAS G13D) [13], 100 to 1000 nM. Also, the IC50 in the assay on HCT116 cells (KRAS G13D) [14] is at most 100 nM; in the assay on HT1080 cells (NRAS) [15], over 1000 nM.
For `CC(=O)N1CC[C@@H](N(C)c2nc(OC[C@@]34CCCN3C[C@H](F)C4)nc3c(F)c(-c4ccc(F)c5sc(N)c(C#N)c45)c(Cl)cc23)[C@H]1C` [Compound 398], the IC50 is 100 to 1000 nM in the assay with SW1900 cells (KRAS G12D) [1]; at most 100 nM in [2]; at most 100 nM in the assay with H1573 cells (KRAS G12A) [3]; over 1000 nM in the assay with HT1080 cells (NRAS) [4]; at most 100 nM in the assay with SW1900 cells (KRAS G12D) [5]; 100 to 1000 nM with HPAC cells (KRAS G12D). In addition, the IC50 is 100 to 1000 nM in assay [6]; at most 100 nM in the assay with H1573 cells (KRAS G12A) [7]; at most 100 nM in the assay on A549 cells (KRAS G12S) [8]; at most 100 nM in assay [9]; at most 100 nM with A549 cells (KRAS G12S) [11]; 100 to 1000 nM in the assay on HCT116 cells (KRAS G13D) [13]. For the same compound, the IC50 was at most 100 nM in the assay on HCT116 cells (KRAS G13D) [14] and over 1000 nM in the assay on HT1080 cells (NRAS) [15].
